System: PC-3 cells
Assay: Tumor cell growth inhibition, sulforhodamine B (SRB) staining
Assay type: cell-based
Conditions: PC-3 human prostatic carcinoma cells, 48 hrs, absorbance 540 nm, adriamycin as positive control
Method: PC-3 cells (ATCC, US), human prostatic carcinoma cell line, were cultured in RMPI 1640 supplemented with 10% fetal bovine serum.
Appropriate concentrations of cells (5×10^4 cells/ml) cultured in RMPI 1640 supplemented with 5% fetal bovine serum were poured into 96-well plate and incubated at 37° C. in 5% CO2 condition. The day after the incubation, PC-3 cells were fixed on Time zero (T0) plate by adding 50 μl/well of 50% trichloroacetic acid and the cell concentration was set to zero point by fixing the cells. In the cells treated with test samples, 50% TCA was added to each wells in 50 ul/well after 48 hrs to fix the cells. The final concentration of adding test compounds were 0.01, 0.03, 0.1, 0.3, 1 μg/ml respectively. Then, each fixed plate was washed, dried and 100 μl/well of 0.4% reaction solution containing sulforhodamine B (SRB) reagent dissolved in 0.1% acetic acid was added thereto to stain the cells. 30 minutes later, the cell was washed with 0.1% acetic acid, dried at room temperature, and 10 mM of TRIS base (pH 10.5) was added thereto to dissolve the staining agent. Finally, the absorbance detected at 540 nm was measured and the value was conversed into percentage comparing with that of control group. IC50 (μg/ml), the concentration of the group required to inhibit the cancer cell growth by 50%, was calculated from the data (AA: IC50's<1, A: IC50's<5, B: IC50's<10 and C: IC50's>10). Also, the inhibiting activity of cell growth was expressed as various symbols in accordance with the potency of examples e.g., AA: closely equivalent (1˜2 times), A: slightly weaker (3˜5 times), B: weaker (5˜10 times), C: very weaker (more than 10 times) than that of adriamycin used as a positive control group.

Row | Compound | IC50 [µg/mL]
1 | O=C(CCC1=CCN(CCc2cccc(F)c2)C1=O)NO [Example 29, 3-{1-[2-(3-fluoro-phenyl)-ethyl]-2-oxo-2,5-dihydro-1H-pyrrol-3-yl}-N-hydroxy-propionamide] | < 5
2 | O=C(CC1=CCN(CCCCc2ccccc2)C1=O)NO [Example 23, N-hydroxy-2-[2-oxo-1-(4-phenyl-butyl)-2,5-dihydro-1H-pyrrol-3-yl]-acetamide] | > 10
3 | O=C(CCC1=CCN(Cc2ccc(OCc3ccccc3)cc2)C1=O)NO [Example 14, 3-[1-(4-benzyloxy-benzyl)-2-oxo-2,5-dihydro-1H-pyrrol-3-yl]-N-hydroxy-propionamide] | < 10
4 | O=C(O)CCC1=CCCN(Cc2ccccc2)C1=O [Example 64, 3-(1-benzyl-2-oxo-1,2,5,6-tetrahydro-pyridin-3-yl)-propionic acid] | > 10
5 | O=C(CCC1CCCN(CCc2ccccc2)C1=O)NO (stereo not drawn) [Example 81, N-hydroxy-3-(2-oxo-1-phenethyl-piperidine-3-yl)-propionamide] | > 10
6 | O=C(CC1=CCCN(CCCCc2ccccc2)C1=O)NO [Example 86, N-hydroxy-2-[2-oxo-1-(4-phenyl-butyl)-1,2,5,6-tetrahydro-pyridin-3-yl]-N-hydroxy-acetamide] | > 10
7 | C=CCN1CC=C(CCC(=O)NO)C1=O [Example 51, 3-(1-allyl-2-oxo-2,5-dihydro-1H-pyrrol-3-yl)-N-hydroxy-propionamide] | > 10
8 | O=C(CCC1=CCN(Cc2ccc(Br)cc2)C1=O)NO [Example 12, 3-[1-(4-bromo-benzyl)-2-oxo-2,5-dihydro-1H-pyrrol-3-yl]-N-hydroxy-propionamide] | < 1
9 | COc1ccc(CN2CCC=C(CC(=O)NO)C2=O)c(OC)c1 [Example 82, 2-[1-(2,4-dimethoxy-benzyl)-2-oxo-1,2,5,6-tetrahydro-pyridin-3-yl]-N-hydroxy-acetamide] | > 10
10 | COc1ccc(CN2CC=C(CCC(=O)NO)C2=O)cc1 [Example 11, N-hydroxy-3-[1-(4-methoxy-benzyl)-2-oxo-2,5-dihydro-1H-pyrrol-3-yl]-propionamide] | < 1
11 | Cc1ccc(CCCN2CC=C(CCC(=O)NO)C2=O)cc1 [Example 40, N-hydroxy-3-[2-oxo-1-(3-p-tolyl-propyl)-2,5-dihydro-1H-pyrrol-3-yl]-propionamide] | < 5
12 | O=C(CCC1=CCCCN(Cc2ccccc2)C1=O)NO [Example 105, 3-(1-Benzyl-2-oxo-2,5,6,7-tetrahydro-1H-azepin-3-yl)-N-hydroxy-propionamide] | > 10
13 | O=C(CCC1=CCN(CCCc2ccc(-c3ccccc3)cc2)C1=O)NO [Example 55, 3-[1-(3-biphenyl-4-yl-propyl)-2-oxo-2,5-dihydro-1H-pyrrol-3-yl]-N-hydroxy-propionamide] | < 1
14 | O=C(CCC1=CCN(CCc2ccc(F)cc2)C1=O)NO [Example 30, 3-{1-[2-(4-fluoro-phenyl)-ethyl]-2-oxo-2,5-dihydro-1H-pyrrol-3-yl}-N-hydroxy-propionamide] | < 5
15 | Cc1ccc(S(=O)(=O)Nc2ccc(CN3CC=C(CCC(=O)NO)C3=O)cc2)cc1 [Example 19, N-hydroxy-3-{2-oxo-1-[4-(toluene-4-sulfonylamino)-benzyl]-2,5-dihydro-1H-pyrrol-3-yl}-propionamide] | < 10
16 | CN1CC=C(CCC(=O)NO)C1=O [Example 50, N-hydroxy-3-(1-methyl-2-oxo-2,5-dihydro-1H-pyrrol-3-yl)-propionamide] | < 1
17 | CS(=O)(=O)N(c1ccc(CN2CCC=C(CCC(=O)NO)C2=O)cc1)S(C)(=O)=O [Example 76, N-hydroxy-3-[1-(4-dimethylsulfonylamino-benzyl)-2-oxo-1,2,5,6-tetrahydro-pyridin-3-yl]-propionamide] | > 10
18 | COc1ccc(CN2CCC=C(CCC(=O)NO)C2=O)c(OC)c1 [Example 57, 3-[1-(2,4-dimethoxybenzyl)-2-oxo-1,2,5,6-tetrahydro-pyridin-3-yl]-N-hydroxy-propionamide] | < 1
